In general, EC50 refers to the concentration at which the effect is half-maximal.

T1 sequence (Q96P20 whole entry): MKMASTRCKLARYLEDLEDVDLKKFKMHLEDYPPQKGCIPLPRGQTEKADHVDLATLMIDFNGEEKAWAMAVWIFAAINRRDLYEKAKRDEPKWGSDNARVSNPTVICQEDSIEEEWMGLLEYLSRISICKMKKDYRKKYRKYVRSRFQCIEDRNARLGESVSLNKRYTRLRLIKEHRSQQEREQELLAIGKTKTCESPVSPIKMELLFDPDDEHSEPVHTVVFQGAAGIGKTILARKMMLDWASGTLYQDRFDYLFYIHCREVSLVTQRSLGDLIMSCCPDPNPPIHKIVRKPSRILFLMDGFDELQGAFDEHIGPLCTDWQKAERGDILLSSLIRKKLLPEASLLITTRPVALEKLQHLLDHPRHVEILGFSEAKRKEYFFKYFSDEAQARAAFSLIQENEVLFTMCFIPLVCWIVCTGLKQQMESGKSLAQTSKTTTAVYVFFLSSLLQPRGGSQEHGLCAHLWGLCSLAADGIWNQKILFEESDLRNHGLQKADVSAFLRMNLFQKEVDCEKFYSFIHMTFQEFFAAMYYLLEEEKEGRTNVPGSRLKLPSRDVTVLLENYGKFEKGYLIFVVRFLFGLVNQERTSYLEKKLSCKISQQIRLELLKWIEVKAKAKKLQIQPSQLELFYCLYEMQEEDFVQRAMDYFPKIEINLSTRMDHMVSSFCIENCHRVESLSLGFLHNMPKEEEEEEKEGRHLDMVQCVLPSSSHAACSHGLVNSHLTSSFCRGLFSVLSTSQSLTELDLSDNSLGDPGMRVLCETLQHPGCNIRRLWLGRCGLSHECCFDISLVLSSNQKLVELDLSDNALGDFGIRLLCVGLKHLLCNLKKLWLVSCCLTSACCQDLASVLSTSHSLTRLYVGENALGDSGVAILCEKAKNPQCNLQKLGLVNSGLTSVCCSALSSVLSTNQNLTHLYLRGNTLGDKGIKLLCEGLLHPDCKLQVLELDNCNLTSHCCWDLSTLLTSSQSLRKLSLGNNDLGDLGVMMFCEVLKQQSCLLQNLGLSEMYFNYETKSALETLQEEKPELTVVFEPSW

The assay addresses T1, NLRP3 (Homo sapiens, UniProt Q96P20).
T1 construct: host or cells: PMA-differentiated THP-1 cells
The assay is described as follows: Measurement of IL-1β production in PMA-differentiated THP-1 cells (NLRP3 hIL1β). The format is cell-based. On the procedure: Serial dilutions of compounds in DMSO were added to low volume 384 well plates at 100 nl/well using an ECHO 550 acoustic dispenser (Labcyte) to achieve final starting concentration of 10 μM in assay.
THP-1 cells in RPMI (Gibco, 11875) media with 10% FBS at a density of 1×10^6 cell/ml in a T175 flask were treated with a final concentration of phorbol 12-myristate 13-acetate (PMA) (Sigma,P1585) of 50 ng/ml overnight at 37° C. at 5% CO2 for differentiation. Cells were harvested the next day after rinsing well with dPBS using 0.5% trypsin. A cell solution was prepared of 1×10^6 cells/ml for 50,000 cells in 50 μl/well in RPMI media with 2% FBS. Cells were plated using a multichannel pipette onto the compound dilutions in Greiner, 384 well, black clear bottom tissue culture treated plates (781090). The plates were incubated in 37° C. incubator at 5% CO2 for 2 hours.
After the 2 hour incubation, the cell plates were spun in the centrifuge for 5 minutes at 1200 rpm. Using the Felix (CyBio), 8 μl of the supernatant was transferred to 384 well, low volume, white proxy plates. (Perkin Elmer, 6008230). A human IL1beta hTRF kit was used to analyze the supernatant (CISBIO, 62HIL1BPEG). The kit instructions were followed for preparing the IL1Beta standard curve and then the antibodies from the kit were diluted 1:40 rather than 1:20 as kit instructed. Once combined, the antibodies were added across the plates, 5 μl/well. The plates were sealed and incubated at 4° C. overnight. The plates were then read on the Perkin Elmer EnVision at 665/615 nm using the hTRF laser.
Turning to “3-((2-Amino-3-cyclopentyl-7-(1H-pyrazol-5-yl)quinolin-4-yl)amino)propan-1-ol [Example 16]”, the midpoint of the response, the EC50, lay at 260 nM.
In the case of `Nc1nc2cc(-c3cc[nH]n3)ccc2c(NCCCO)c1F` [Example 1, 3-((2-Amino-3-fluoro-7-(1H-pyrazol-3-yl)quinolin-4-yl)amino)propan-1-ol] it was 160 nM; in that of `Nc1nc2cc(-c3cc[nH]n3)ccc2c(N[C@H]2CC[C@H](O)C2)c1F` [Example 2, (1 S,3 S)-3-((2-Amino-3-fluoro-7-(1H-pyrazol-3-yl)quinolin-4-yl)amino)cyclopentan-1-ol], 600 nM; in that of `Nc1nc2cc(-c3cc[nH]n3)ccc2c(NCCCO)c1Cl` [Example 3, 3-((2-Amino-3-chloro-7-(1H-pyrazol-3-yl)quinolin-4-yl)amino)propan-1-ol], 350 nM.
For the compound `Nc1cc(NCCCO)c2ccc(-c3cc[nH]n3)c(F)c2n1` [Example 4, 3-((2-Amino-8-fluoro-7-(1H-pyrazol-3-yl)quinolin-4-yl)amino)propan-1-ol], the response was half-maximal at 330 nM (EC50).
Under `Cc1cc(-c2cc[nH]n2)cc2nc(N)cc(N[C@H]3CC[C@H](O)C3)c12` [Example 5, (1S,3S)-3-((2-Amino-5-methyl-7-(1H-pyrazol-3-yl)quinolin-4-yl)amino)cyclopentan-1-ol] stands 4000 nM.
In the case of `Cc1cc(-c2cc[nH]n2)cc2nc(N)cc(NCc3cc[nH]n3)c12` [Example 6, N4-((1H-Pyrazol-3-yl)methyl)-5-methyl-7-(1H-pyrazol-3-yl)quinoline-2,4-diamine] it was 1400 nM; in that of `Nc1cc(NCCCO)c2c(F)cc(-c3cc[nH]n3)cc2n1` [Example 7, 3-((2-Amino-5-fluoro-7-(1H-pyrazol-3-yl)quinolin-4-yl)amino)propan-1-ol], 230 nM.
For `Nc1cc(N[C@H]2CC[C@H](O)C2)c2c(F)cc(-c3cc[nH]n3)cc2n1` [Example 8, (1S,3S)-3-((2-Amino-5-fluoro-7-(1H-pyrazol-3-yl)quinolin-4-yl)amino)cyclopentan-1-ol], the EC50 was 230 nM.
Under `Nc1cc(NCc2cc[nH]n2)c2c(F)cc(-c3cc[nH]n3)cc2n1` [Example 9, N4-((1H-Pyrazol-3-yl)methyl)-5-fluoro-7-(1H-pyrazol-3-yl)quinoline-2,4-diamine] stands 290 nM; under `Nc1cc(N[C@H]2CCOC2)c2c(F)cc(-c3cc[nH]n3)cc2n1` [Example 10, (S)-5-Fluoro-7-(1H-pyrazol-3-yl)-N4-(tetrahydrofuran-3-yl)quinoline-2,4-diamine], 850 nM.
Under `Nc1cc(NCc2ccn[nH]2)c2ccc(-c3ccn[nH]3)c(F)c2n1` [Example 11, N4-((1H-Pyrazol-5-yl)methyl)-8-fluoro-7-(1H-pyrazol-5-yl)quinoline-2,4-diamine] stands 710 nM; under `Cc1c(N)nc2cc(-c3ccn[nH]3)ccc2c1NCCCO` [Example 12, 3-((2-Amino-3-methyl-7-(1H-pyrazol-5-yl)quinolin-4-yl)amino)propan-1-ol], 2900 nM.
In the case of `Cc1c(N)nc2cc(-c3ccn[nH]3)ccc2c1NCc1ccn[nH]1` [Example 13, N4-((1H-Pyrazol-5-yl)methyl)-3-methyl-7-(1H-pyrazol-5-yl)quinoline-2,4-diamine] it was 450 nM.
`Nc1nc2cc(-c3ccn[nH]3)ccc2c(NCCO)c1C1CCCC1` [Example 14, 2-((2-Amino-3-cyclopentyl-7-(1H-pyrazol-5-yl)quinolin-4-yl)amino)ethan-1-ol] showed an EC50 of 260 nM.
On to `Nc1nc2cc(-c3ccn[nH]3)ccc2c(NCc2ccccn2)c1C1CCCC1` [Example 15, 3-Cyclopentyl-7-(1H-pyrazol-5-yl)-N4-(pyridin-2-ylmethyl)quinoline-2,4-diamine], for which the half-maximal effective concentration (EC50) was found to be 440 nM.

For the origin of these results see US12338228B2, “NLRP3 modulators” (Innate Tumor Immunity, Inc., priority 2019, dated 2025).
